According to patent US12606556B2, “TYK-2 inhibitor” (BEIGENE, LTD., priority 2020, dated 2026):
Read-outs that look alike come from different tables or passages of the source.

Columns and labels:
[1] = target: T1, TYK2-JH2 (aa 575-869, in-house) protein (Homo sapiens, UniProt P29597); assay: TYK2-JH2 biochemical assay (HTRF, blocking of TYK2-JH2 protein with its probe); format: binding; settings: for IC50: HTRF, 0.2 nM recombinant TYK2-JH2, Probe 1; for Biochemical assay Selectivity fold (TYK2/JAK1): TYK2-JH2 vs JAK1-JH2 biochemical IC50
T1 construct: TYK2-JH2 (aa 575-869, in-house) protein; made in house
T1 sequence (P29597 575-869): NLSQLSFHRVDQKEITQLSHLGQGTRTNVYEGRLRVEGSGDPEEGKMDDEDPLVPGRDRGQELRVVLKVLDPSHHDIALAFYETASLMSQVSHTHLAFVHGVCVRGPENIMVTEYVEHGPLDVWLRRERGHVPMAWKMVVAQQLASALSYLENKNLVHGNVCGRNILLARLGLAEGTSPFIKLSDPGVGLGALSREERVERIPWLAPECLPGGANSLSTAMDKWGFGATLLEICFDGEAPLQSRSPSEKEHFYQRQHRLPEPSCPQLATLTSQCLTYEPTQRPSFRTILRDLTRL
Outline: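 Recombinant TYK2-JH2 (0.2 nM) pre-incubated with compounds (10 doses, 5-fold dilutions) 0.5 h at RT in HEPES pH 7.5 buffer with MgCl2, BSA, DTT, Brij-35; biotinylated probe (10 nM working solution, KD=10 nM) plus anti-6His Tb cryptate/streptavidin-XL665 added, 1 h RT. HTRF ratio read; IC50 from four-parameter logistic fit.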

[2] = target: T2, JAK1-JH2 protein (aa 561-860, in-house) (Homo sapiens, UniProt P23458); assay: JAK1-JH2 biochemical assay (HTRF, blocking of JAK1-JH2 protein with its probe); format: binding; settings: 1.17 nM recombinant JAK1-JH2, Probe 2
T2 construct: JAK1-JH2 protein (aa 561-860, in-house); made in house
T2 sequence (P23458 561-860): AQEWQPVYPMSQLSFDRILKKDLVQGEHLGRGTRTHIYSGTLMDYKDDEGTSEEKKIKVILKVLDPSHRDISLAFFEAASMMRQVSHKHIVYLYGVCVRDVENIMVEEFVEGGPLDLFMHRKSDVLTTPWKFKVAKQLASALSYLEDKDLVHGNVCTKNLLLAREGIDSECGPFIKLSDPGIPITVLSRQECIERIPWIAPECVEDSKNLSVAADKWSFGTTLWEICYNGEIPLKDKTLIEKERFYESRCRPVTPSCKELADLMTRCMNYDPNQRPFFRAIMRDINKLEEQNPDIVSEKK
Outline: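 HTRF probe-displacement assay using recombinant human JAK1 pseudokinase domain (aa 561-860, 1.17 nM in pre-incubation step), pre-incubated 0.5 h at room temperature with 10-dose 5-fold compound series. Buffer: 20 mM HEPES pH 7.5, 10 mM MgCl2, 0.005% BSA, 2 mM DTT, 0.015% Brij-35. IC50 by four-parameter logistic fit of 615/665 nm ratio.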

[3] = test system: JAK2, TYK2/p-STAT4 (Tyr693) activated by IL-12 in NK-92 cell line; assay: IL-12-JAK2, TYK2/p-STAT4 (Tyr693) inhibition cellular assay; format: cell-based; settings: for IC50: NK92, 0.5 h, read-out: Cellular assay pSTAT4/IL-12 IC50; for Cellular assay Selectivity fold (TYK2/JAK1): pSTAT4/IL-12 vs pSTAT3/IL-6 cellular IC50
Outline: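 NK-92 cells were starved overnight without IL-2 and seeded at 5×10^4 per well in 1640 medium with 0.1% BSA. Lysate p-STAT4 (Tyr693) was measured by AlphaLISA SureFire, and IC50 was fitted with a 4-parameter logistic model.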

[4] = test system: JAK1/p-STAT3(Tyr705) activated by IL-6 in TF-1 cell line; assay: IL-6-JAK1/p-STAT3(Tyr705) inhibition cellular assay; format: cell-based; settings: Homo sapiens, read-out: Cellular assay pSTAT3/IL-6 IC50
[5] = NK-92 cells, IL-12 40 ng/ml, 30 min
[6] = 0.5 h, TF-1 cells, IL-6 50 ng/ml, 30 min

| Structure (SMILES) | IC50 [1] [nM] | Biochemical assay Selectivity fold (TYK2/JAK1) [1] [fold] | IC50 [2] [nM] | IC50 [3, 5] [nM] | IC50 [4, 6] [nM] | Cellular assay Selectivity fold (TYK2/JAK1) [3] [fold] | IC50 [3] [nM] | IC50 ([4]; TF-1, 0.5 h) [nM] |
| --- | --- | --- | --- | --- | --- | --- | --- | --- |
| CNC(=O)c1nnc(NC(=O)C2CC2)cc1Nc1nc2ccc(C3CN(C(=O)c4cccnc4)C3)cn2n1 [Example L3, 6-(cyclopropanecarboxamido)-N-methyl-4-((6-(1-nicotinoylazetidin-3-yl)-[1,2,4]triazolo[1,5-a]pyridin-2-yl)amino)pyridazine-3-carboxamide] | 0.072 | 21 | 1.5 | 127 | > 10000 | >79 |  |  |
| CNC(=O)c1nnc(NC(=O)C2CC2)cc1Nc1nc2ccc(C3CN(C)C3)cn2n1 [Example M1, 6-(cyclopropanecarboxamido)-N-methyl-4-((6-(1-methylazetidin-3-yl)-[1,2,4]triazolo[1,5-a]pyridin-2-yl)amino)pyridazine-3-carboxamide] | 0.26 | 10 | 2.6 | 63 | > 10000 | >158 |  |  |
| CNC(=O)c1nnc(NC(=O)C2CC2)cc1Nc1nc2c(OC)cc(N3CCC3)cn2n1 [Example N1, 4-((6-(azetidin-1-yl)-8-methoxy-[1,2,4]triazolo[1,5-a]pyridin-2-yl)amino)-6-(cyclopropanecarboxamido)-N-methylpyridazine-3-carboxamide] | 0.87 | 2 | 1.4 | 687 | > 10000 | >14 |  |  |
| CNC(=O)c1nnc(NC(=O)C2CC2)cc1Nc1nc2c(F)cc(N3CCC3)cn2n1 [Example N2, 4-((6-(azetidin-1-yl)-8-fluoro-[1,2,4]triazolo [1,5-a]pyridin-2-yl)amino)-6-(cyclopropanecarboxamido)-N-methylpyridazine-3-carboxamide] | 0.063 | 20 | 1.28 | 14 | 9640 | 688 |  |  |
| CNC(=O)c1nnc(NC(=O)C2CC2)cc1Nc1nc2ccc(C(=O)N3CCC3)cn2n1 [Example O1, 4-((6-(azetidine-1-carbonyl)-[1,2,4]triazolo[1,5-a]pyridin-2-yl)amino)-6-(cyclopropanecarboxamido)-N-methylpyridazine-3-carboxamide] | 0.17 | 6 | 1.06 |  |  | 28 | 169 | 4880 |

Continued by falling IC50 [1], values first:

| IC50 [1] [nM] | Biochemical assay Selectivity fold (TYK2/JAK1) [1] [fold] | IC50 [2] [nM] | IC50 [3, 5] [nM] | IC50 [4, 6] [nM] | Structure (SMILES) | Cellular assay Selectivity fold (TYK2/JAK1) [3] [fold] | IC50 [3] [nM] | IC50 ([4]; TF-1, 0.5 h) [nM] |
| --- | --- | --- | --- | --- | --- | --- | --- | --- |
| 0.16 | 14 | 2.18 | 157 | > 10000 | CNC(=O)c1nnc(NC(=O)C2CC2)cc1Nc1nc2ccc(N3CC(C(=O)N4CCSC4)C3)cn2n1 [Example Q1, 6-(cyclopropanecarboxamido)-N-methyl-4-((6-(3-(thiazolidine-3-carbonyl)azetidin-1-yl)-[1,2,4]triazolo[1,5-a]pyridin-2-yl)amino)pyridazine-3-carboxamide] | >64 |  |  |
| 0.089 | 17 | 1.47 | 21 | 4100 | CNC(=O)c1nnc(NC(=O)C2CC2)cc1Nc1nc2c(C)cc(N3CCC3)cn2n1 [Example N3] | 192 |  |  |
| 0.076 | 22 | 1.7 | 2000 | > 10000 | CNC(=O)c1nnc(NC(=O)C2CC2)cc1Nc1nc2ccc(C3CN(C(=O)c4ncn(C)n4)C3)cn2n1 [Example L5, 6-(cyclopropanecarboxamido)-N-methyl-4-((6-(1-(1-methyl-1H-1,2,4-triazole-3-carbonyl)azetidin-3-yl)-[1,2,4]triazolo[1,5-a]pyridin-2-yl)amino)pyridazine-3-carboxamide] | >5 |  |  |
| 0.04 | 38 | 1.5 | 86 | > 10000 | CNC(=O)c1nnc(NC(=O)C2CC2)cc1Nc1nc2ccc(C3CN(C(=O)N4CCOCC4)C3)cn2n1 [Example L6, 6-(cyclopropanecarboxamido)-N-methyl-4-((6-(1-(morpholine-4-carbonyl)azetidin-3-yl)-[1,2,4]triazolo[1,5-a]pyridin-2-yl)amino)pyridazine-3-carboxamide] | >117 |  |  |
| 0.039 | 36 | 1.4 | 29 | > 10000 | CNC(=O)c1nnc(NC(=O)C2CC2)cc1Nc1nc2ccc(N3CCC(C4CN(C)C4)CC3)cn2n1 [Example P1, 6-(cyclopropanecarboxamido)-N-methyl-4-((6-(4-(1-methylazetidin-3-yl)piperidin-1-yl)-[1,2,4]triazolo[1,5-a]pyridin-2-yl)amino)pyridazine-3-carboxamide] | >344 |  |  |
